# Values of other authors, collected in patent US7105176B2, “Production of solid preparations of water-soluble, sparingly water-soluble or water-insoluble active compounds” (BASF Aktiengesellschaft, priority 2000, dated 2006).
# Settings: at 314 nm
smiles,measurement,value
"CCCCC(CC)COC(=O)c1ccc(Nc2nc(Nc3ccc(C(=O)OCC(CC)CCCC)cc3)nc(Nc3ccc(C(=O)OCC(CC)CCCC)cc3)n2)cc1 (stereo not shown) [Uvinul® T150, 2,4,6-trianilino-p-(carbo-2′-ethylhexyl-1′-oxy)-1,3,5-triazine]",extinction coefficient,> 1500
